In paper PMC12587545, “Noncytotoxic polymyxin derivatives enhance antibiotic action against multidrug-resistant Gram-negative bacteria” (Antimicrobial Agents and Chemotherapy, 2025):
Where “and” joins values, the source holds several entries; their conditions need not be identical. Equal values may be shown once. Positions of bridges follow the written chain, without caps; N, C: chain ends. Non-standard residues stand in square brackets, D forms with d. Residues, ends and D or L forms follow the SMILES beside them. *: point of attachment. Octanoyl = CCCCCCCC(=O)*; Dab = NCC[C@H](N)C(=O)O; Dap = NC[C@H](N)C(=O)O

How the values were obtained:
P. aeruginosa = assay: Checkerboard assay (antibiotic potentiation); type: cell-based, Pseudomonas aeruginosa; conditions: for MICcompound 1: compound 1 alone
A. baumannii = assay: Checkerboard assay (antibiotic potentiation); type: cell-based, Acinetobacter baumannii; conditions: compound 1 alone
E. coli = assay: Checkerboard assay (antibiotic potentiation); type: cell-based, Escherichia coli; conditions: compound 1 alone
K. pneumoniae = assay: Checkerboard assay (antibiotic potentiation); type: cell-based, Klebsiella pneumoniae; conditions: compound 1 alone
E. cloacae = assay: Checkerboard assay (antibiotic potentiation); type: cell-based, Enterobacter cloacae; conditions: E. cloacae 121887 (colistin-resistant); compound 1 alone
E. faecalis ATCC 29212 = assay: Checkerboard assay (rifampicin potentiation); type: cell-based; conditions: compound 1 alone
Procedure: (§1) The interaction between the compounds and the antibiotics was evaluated using the fractional inhibitory concentration (FIC) index. FIC indices of ≤0.5 is synergistic, 0.5 < × ≤ 4 is additive, whereas >4 is antagonistic ([34]). […] .
(§2) The bacterial isolates were acquired from ATCC or the Canadian Ward Surveillance (CANWARD) study ([56]). CANWARD isolates were collected from infected patients admitted to participating medical centers across Canada.
(§3) The antibiotic and compounds were serially diluted 2-fold in CAMHB along the x- and y-axis, respectively, on a 96-well plate that was subsequently incubated with equal volumes of bacterial inoculum overnight at 37°C. Wells containing only media were used as negative controls, and wells containing only bacteria were used as positive controls. Synergy was measured by the FIC index, which is the summation of the individual FICs of the antibiotic and the compound. The FIC is calculated by dividing the MIC of one agent in the presence of another by the MIC of the agent alone. Turbidity was confirmed with a Molecular Devices (United States) EMax Plus microplate reader at a wavelength of 590 nm. The FBS studies were conducted by following a previously published protocol ([29], [50]). The FBS was inactivated by heating at 56°C for 30 min with constant swirling.

E. faecium ATCC 27270 = assay: Checkerboard assay (rifampicin potentiation); type: cell-based; conditions: compound 1 alone
Procedure: as §1, §2, §3

[1] = test system: Methicillin-resistant S. aureus ATCC 22592; assay: Checkerboard assay (rifampicin potentiation); type: cell-based; conditions: MRSA ATCC 22592; compound 1 alone
Procedure: as §1, §2, §3

P. aeruginosa 259-96916 = assay: Time-kill kinetics assay; conditions: monotherapy at 8 µg/mL, LB, 37°C, up to 24 h
A. baumannii AB027 = assay: Time-kill kinetics assay; conditions: monotherapy at 8 µg/mL, LB, 37°C, up to 24 h
Procedure: Bactericidal and bacteriostatic activity correspond to a ≥ 3 log10 and a < 3 log10 decrease in bacterial load after 24 h relative to the starting inoculum, respectively ([39]).
The time- and concentration-dependent killing of the antibiotic/compound combinations was assessed using the time-kill kinetics assay by following a previously described protocol ([27][–][29]). Bacterial culture grown overnight was diluted in phosphate-buffered saline (PBS) to 0.5 McFarland turbidity and was further diluted 1:50 in LB. Bacterial cultures treated with varying concentrations of antibiotic alone, compound alone, or the combination of antibiotic and compound were incubated in a shaking incubator at 250 rpm and at 37°C. At designated time points, 100 µL aliquots were taken from the culture tubes, serially diluted in PBS, and plated on LB agar plates. The bacterial colonies were then counted after incubation of the plates for 18 h at 37°C.

Q: Which results are given for `CCCCCCCC(=O)N[C@@H](CN)C(=O)N[C@H](C(=O)N[C@@H](CN)C(=O)N[C@H]1CCNC(=O)[C@H]([C@@H](C)O)NC(=O)[C@H](CN)NC(=O)[C@H](CN)NC(=O)[C@H](CC(C)C)NC(=O)[C@@H](Cc2ccccc2)NC(=O)[C@H](CN)NC1=O)[C@@H](C)O` [Compound 1] (Octanoyl-[Dap]T[Dap][Dab][Dap][dF]L[Dap][Dap]T; lactam 4-C)?
A: MICcompound 1 (P. aeruginosa; P. aeruginosa 259-96916): >128 µg/mL; MICcompound 1 (P. aeruginosa; P. aeruginosa 262-101856): >128 µg/mL; MICcompound 1 (P. aeruginosa; P. aeruginosa 264-105354): >128 µg/mL; MICcompound 1 (P. aeruginosa; P. aeruginosa 101243 (colistin-resistant)): >128 µg/mL; MICcompound 1 (P. aeruginosa; P. aeruginosa 114228 (colistin-resistant)): >128 µg/mL; MICcompound 1 (P. aeruginosa; P. aeruginosa PAO1, 0% FBS): >128 µg/mL; MICcompound 1 (P. aeruginosa; P. aeruginosa PAO1, 10% FBS (heat-inactivated)): >128 µg/mL; MICcompound 1 (P. aeruginosa; P. aeruginosa PAO1, 25% FBS): >128 µg/mL; MICcompound 1 (P. aeruginosa; P. aeruginosa PAO1, 50% FBS): >128 µg/mL; MICcompound 1 (P. aeruginosa; P. aeruginosa PAO1, [Mg2+] 25 mM): >128 µg/mL; MICcompound 1 (P. aeruginosa; P. aeruginosa PAO1, [Mg2+] 0.4–0.5 mM (CAMHB)): >128 µg/mL; MICcompound (P. aeruginosa; P. aeruginosa PAO1, compound alone): >128 µg/mL; MICcompound 1 (A. baumannii; A. baumannii 92247 (colistin-resistant)): >128 µg/mL; MICcompound 1 (A. baumannii; A. baumannii 110193): 32 µg/mL and 16 µg/mL; MICcompound 1 (A. baumannii; A. baumannii AB027): >128 µg/mL; MICcompound 1 (A. baumannii; A. baumannii ATCC 17978, 0% FBS): 16 µg/mL; MICcompound 1 (A. baumannii; A. baumannii ATCC 17978, 10% FBS (heat-inactivated)): >128 µg/mL; MICcompound 1 (A. baumannii; A. baumannii ATCC 17978, 25% FBS): >128 µg/mL; MICcompound 1 (A. baumannii; A. baumannii ATCC 17978, 50% FBS): >128 µg/mL; MICcompound 1 (A. baumannii; A. baumannii ATCC 17978, [Mg2+] 25 mM): >128 µg/mL; MICcompound 1 (A. baumannii; A. baumannii ATCC 17978, [Mg2+] 0.4–0.5 mM (CAMHB)): 16 µg/mL; MICcompound 1 (E. coli; E. coli 94393 (colistin-resistant)): >128 µg/mL; MICcompound 1 (E. coli; E. coli 94474 (colistin-resistant)): >128 µg/mL; MICcompound 1 (K. pneumoniae; K. pneumoniae 113250 (colistin-resistant)): >128 µg/mL; MICcompound 1 (K. pneumoniae; K. pneumoniae 116381): >128 µg/mL; MICcompound 1 (E. cloacae): >128 µg/mL; MICcompound 1 (E. faecalis ATCC 29212): >128 µg/mL; MICcompound 1 (E. faecium ATCC 27270): >128 µg/mL; MICcompound 1 [1]: >128 µg/mL; time-kill outcome (P. aeruginosa 259-96916): decrease in growth up to 4 h, with regrowth occurring at 8 h; time-kill outcome (A. baumannii AB027): growth curves similar to that of untreated bacteria
